According to patent US20230390277A1, “METHODS TO SENSITIZE TUMORS TO TREATMENT BY IMMUNOTHERAPY” (Ohio State Innovation Foundation, priority 2020, published 2023):

Columns and labels:
ETC complex 1 (C1) = ETC complex 1 (C1) (Homo sapiens, UniProt O75251+O75306+P03886); test: inhibition of cellular OCR by Seahorse XE assay; format: cell-based
Text: PPVs PDE and mitochondrial activities are chemically separable. Papaverine has been traditionally thought to be effective as a vasodilator for the treatment of conditions including erectile dysfunction because it can inhibit PDE10A (like PDE 5 inhibitors sildenafil and tadalafil). However, PDE inhibition is not responsible for OCR effects in vitro, so we postulated that there are two activities in PPV, one inhibiting ETC complex 1 (C1) and one inhibiting PDE10A that may reside in different parts of the molecule. We therefore defined the structure activity relationship (SAR) of PPV relative to two assays: inhibition of cellular OCR by Seahorse XE assay, and inhibition of PDE10A by purified enzyme activity (PDE10A activity assay, BPS Bioscience). Because PPV can compete with rotenone at complex 1 (23), we reasoned that they may be binding the same site and therefore the structures would be similar relative to their target. Because the top portion of PPV was a planar structure like that of rotenone, we decided to focus our attention on the lower portion of the molecule.

PDE10A = biological target: T1, PDE10A (Homo sapiens, UniProt Q9Y233); test: PDE10A purified enzyme activity assay (BPS Bioscience); format: biochemical; conditions: dose response analysis
T1 construct: purchased BPS Bioscience
T1 sequence (Q9Y233 whole entry): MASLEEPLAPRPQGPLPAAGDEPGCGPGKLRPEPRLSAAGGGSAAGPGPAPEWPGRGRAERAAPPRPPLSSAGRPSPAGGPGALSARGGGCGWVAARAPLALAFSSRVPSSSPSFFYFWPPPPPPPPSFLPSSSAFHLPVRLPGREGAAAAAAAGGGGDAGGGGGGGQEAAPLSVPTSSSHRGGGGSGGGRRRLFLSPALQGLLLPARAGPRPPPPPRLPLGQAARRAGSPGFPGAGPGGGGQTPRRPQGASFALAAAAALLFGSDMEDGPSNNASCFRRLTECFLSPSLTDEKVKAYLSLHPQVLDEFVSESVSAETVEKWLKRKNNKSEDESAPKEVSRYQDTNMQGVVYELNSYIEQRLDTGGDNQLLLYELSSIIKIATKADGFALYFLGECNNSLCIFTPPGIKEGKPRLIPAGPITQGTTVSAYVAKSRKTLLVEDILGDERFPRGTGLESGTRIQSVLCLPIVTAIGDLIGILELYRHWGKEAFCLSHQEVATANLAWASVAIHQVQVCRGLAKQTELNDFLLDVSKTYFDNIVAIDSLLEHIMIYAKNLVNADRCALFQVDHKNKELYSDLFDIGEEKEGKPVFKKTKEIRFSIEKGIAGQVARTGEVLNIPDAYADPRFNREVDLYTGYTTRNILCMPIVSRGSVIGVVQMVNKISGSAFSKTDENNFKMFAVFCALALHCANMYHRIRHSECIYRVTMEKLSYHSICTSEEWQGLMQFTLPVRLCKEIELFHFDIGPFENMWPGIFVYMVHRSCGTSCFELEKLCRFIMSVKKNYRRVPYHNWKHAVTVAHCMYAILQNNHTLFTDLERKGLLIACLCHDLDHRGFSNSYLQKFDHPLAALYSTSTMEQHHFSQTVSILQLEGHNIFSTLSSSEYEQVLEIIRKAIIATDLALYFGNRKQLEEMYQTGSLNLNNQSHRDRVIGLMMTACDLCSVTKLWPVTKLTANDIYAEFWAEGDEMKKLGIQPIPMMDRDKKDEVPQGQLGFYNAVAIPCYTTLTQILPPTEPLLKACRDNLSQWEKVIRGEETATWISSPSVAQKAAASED
Text: We therefore defined the structure activity relationship (SAR) of PPV relative to two assays: inhibition of cellular OCR by Seahorse XE assay, and inhibition of PDE10A by purified enzyme activity (PDE10A activity assay, BPS Bioscience). […] Because the top portion of PPV was a planar structure like that of rotenone, we decided to focus our attention on the lower portion of the molecule.

MC38 colorectal tumor = test: MC38 colorectal tumors in C57Bl6 mice, sensitization to anti PD-1; format: in vivo, mouse
Experimental: MC38 tumors grown in C57B16 mice were treated as indicated with irrelevant antibody, anti PD-1, or anti PD-1 after PPV or SMV32 n=5-7, P=<0.05* for PPV and <0.01** for SMV32.
Papaverine and SMV32 enhance PD-1 checkpoint blockade immunotherapy for cancer treatment. Because of the literature describing the immunomodulatory effects of hypoxia^(24-27), we hypothesized that reducing hypoxia may also enhance tumor lymphocyte infiltration and function and improve immune-mediated tumor cell killing. As those of skill in the art recognize, there is a large body of literature and research on increase the supply side of the hypoxia equation, but it has been heretofore an unexpected approach to decrease the tri demand side of the hypoxia equation. We tested tumors grown from the relatively immune-sensitive syngeneic MC38 colorectal tumor line in immuno-competent C5713116 mice. […] In a second cohort, we implanted 1×10^6 cells/mouse and after 5 days, when tumors were 50-100 mm^3, they were randomized into four groups. Therapy was started with either control rat IgG antibody, or a suboptimal dose of anti PD-1(CD279) blocking monoclonal antibody (BioXCell, clone 29F.1A12, 100 μg ip every 3 days).

CMT167 flank lung tumors = CMT167 flank lung tumors in C57Bl6 mice, sensitization to anti PD-1; format: in vivo, mouse
Experimental: C57B16 mice bearing CMT167 flank lung tumors were treated as indicated on days 10 and 13 and relative volume followed.
There are reports in the literature indicating ways that hypoxia affects immune functions of lymphocytes, MDSCs and T regulatory cells infiltrating in the tumor.

LLC tumor = test: Lewis Lung Carcinoma (LLC) PD-1 blockade resistant tumor model; format: in vivo, mouse
Experimental: LLC tumor bearing mice were treated as indicated on days 5, 8 and relative growth followed. P=NS for PD-1 vs PPV->PD1, 0.04 for PD-i vs SMV32->PD-1.
Finally, as a rigorous test of anti-hypoxia agents as immuno-sensitizers of model tumors grown in mice, we next tested the PD-1 blockade resistant tumor model Lewis Lung Carcinoma (LLC). These tumors have been reported to be refractory to even full dose (200 ug/mouse) PD-1 blocking antibody.

[1] = tested on: CD8 T cells in MC38 tumors; test: multispectral immunophenotyping of tumor infiltrating lymphocytes in MC38 tumors; format: in vivo, mouse; conditions: 2 mg/kg IV days 8, 10, 13; tumors harvested day 15
Experimental: Panel A Tumor infiltrating immune cells isolated from Day 15 MC38 tumors (n=4/g) were stained for lineage (CD45, CD3, CD8, […], and CD11b) and T cell exhaustion (PD1, Tim3, Slamf6, TOX, Tcf1, CD44, CD62L, CTLA4, Lag-3, Klrg1, T-bet, and Ki-67) (93-96). Cells were analyzed by Cytek Aurora multi-spectral FACS, and Umap generated based on concatenated file from each 4 FSC files without variation in cell number. Limp figure was generated by OMIQ with CD8 T cells (CD45+, CD3+, CD8+, CD11b−, CD4−). CD8 population was divided into 15 clusters based on T cell markers. Expression signatures marked (ovals) show progenitor exhausted T cells and terminally exhausted T cells. Panel B Statistical significance of clusters between control and SMV32 treated group were assessed by edgeR and SAM (n=4 mice per group).
In order to determine a mechanism by which reduction in hypoxia enhances immune function in the solid tumor, we undertook an investigation with multi spectral immunophenotyping. This technology uses 36 different markers simultaneously to characterize immune cell infiltrate in tumors. We performed this analysis on heterotopic NIC38 murine colorectal carcinoma tumors grown in immune-competent C57BI6 mouse strain. A cohort of tumor bearing mice were randomized to be treated with either IV delivery of vehicle control, or either PPV or SMV32. […]

cells = test: in vitro washout experiments; format: cell-based; conditions: initial studies
murine tumors = test: murine tumor hypoxia and radiation response; conditions: mouse, in vivo
[2] = tested on: orthotopic MP2 pODD tumors; test: in vivo bioluminescent imaging, orthotopic MP2 pODD tumors; design: species or system mouse; conditions: 2 mg/kg, tail vein
Experimental: Orthotopic Panreatic Xenografts. MP2 PD AC cells (1×10^6) or the indicated derivates were implanted in immune-deficient athymic nu/nu mice following fACLIC approved protocols. Briefly, an incision was placed in the right flank of anesthetized animals the spleen and pancreas liberated. Cells were mixed 1:1 with Matfigel and implanted in the tail of the pancreas in 10 μl. Incision was sutured in 2 layers, animals given long lasting analgesics, and allowed to recover from anesthesia. Mice were returned to housing for post-op care and monitored daily for 4 days. Animals were checked weekly after that by palpation to determine tumor growth.
In vivo bioluminescent imaging. All animal experiments were performed according to protocols approved by the OSU institutional IAGLIC review (protocol #201200000124-R2), with daily veterinarian observation. For heterotopic flank tumor experiments, 1×10^6 HeLa pODD or 5×10^6 MP2 cells were injected subcutaneously (s.c.) into the flanks of 6-wk-old female (HeLa pODD) or male (N1P2 pODD or MP2 CMV) immunocompromised athymic nu/nu mice. […] Mice were anesthetized with 1.5% isoflurane and bioluminescence was measured every two minutes for the period of 25 minutes to identify peak response of each mouse to D-luciferin. Bioluminescent data were analyzed using living Image software (Perkin Elmer Inc) and calculated as photon flux/sec. […]

[3] = tested on: pODD-Luc reporter in MP2 pODD cells; test: in vitro luciferase assay, MP2 pODD cells; format: cell-based, human; conditions: 16 hours, 1 mM
Experimental: (§1) PCR-amplified cassette was then digested with Asci and Pmel restriction enzymes and ligated into pLenti-C-Myc-DDK-IRES-Puro. Correct orientation and sequence was confirmed by Sanger DNA sequencing. HeLa pODD and MIP2 pODD transfectants were selected with 2 μg/ml Puromycin for two weeks. Stable MP2 CMV Cells were generated by lentiviral transduction of MP2 cells with pLenti-CMV-Puro-Luc lentiviral vector (Addgene#17477) with 2 Puromycin selection for two weeks. Cells were grown in Dulbecco's Modified Eagle's Medium (DMEM) containing 25 mM D-glucose, 4 mM glutamine and 44 mM sodium bicarbonate in 5% CO2, if not stated otherwise. The cells were exposed to hypoxia (1% O2) in H35 Hypoxic Workstation (Hypoxygen) with 5% CO2 at 37° C. In some experiments, we used a hypoxia mimetic dimethyloxalyglycine (DMOG) as described. Cell counts and cellular proliferation were established using hemocytometer to determine the cell number and trypan blue exclusion assay to establish the fraction of viable/dead cells. All human cell lines have been authenticated using STR profiling within the past 3 years. All experiments were performed with mycoplasma-free cells.
In vitro luciferase Assay. Proteins were extracted using Luciferase Assay Lysis Buffer (125 mM Tris-HCl, pH 7.5, 11.0 mM DTT, 10 mM EGTA, 50% Glycerol, 5% Triton X-100) and 200 μl/sample were transferred to 96-well plate and D-luciferin was added to the final concentration of 150 μg/ml immediately before the assay. Bioluminescence was measured on a Synergy H1 Hybrid Plate Reader (Biotek) after a 10-minute incubation period (10 slsample, Gain=150) in triplicates.

MP2 CMV cells = test: in vitro luciferase assay, MP2 CMV control cells; format: cell-based, human; conditions: 1 mM DMOG, constitutive CMV reporter
Experimental: as §1
In vitro luciferase Assay. […] Bioluminescence was measured on a Synergy H1 Hybrid Plate Reader (Biotek) after a 10-minute incubation period (10 slsample, Gain=150) in triplicates.

MP2 pODD flank tumors = test: in vivo bioluminescent imaging, heterotopic MP2 pODD flank tumors; design: species or system mouse; conditions: 4 mg intraperitoneally, 4 hours post injection
Experimental: In vivo bioluminescent imaging. […] For heterotopic flank tumor experiments, 1×10^6 HeLa pODD or 5×10^6 MP2 cells were injected subcutaneously (s.c.) into the flanks of 6-wk-old female (HeLa pODD) or male (N1P2 pODD or MP2 CMV) immunocompromised athymic nu/nu mice. Replicate experiments with groups of 4-6 mice were used for statistical reproducibility. Caliper measurements of opposing diameters were used to calculate the tumor volumes using the modified ellipsoidal formula: tumor volume=(length×width^2)[23]. Upon reaching 100 mm^3, the animals were given 100 mg/kg D-luciferin intraperitoneally and bioluminescence images were captured using IVIS In Vivo Imaging System Lumina II (Perkin Elmer Inc). […] Bioluminescent data were analyzed using living Image software (Perkin Elmer Inc) and calculated as photon flux/sec. Obtained individual photon flux peak values were then normalized to baseline for each mouse and averaged per group. Gas inhalation experiments were performed by switching medical air and carbogen gas sources for the IVIS anesthesia vaporizer. Initial baselines were established in medical air under anesthesia, then the mice were subjected to 30 minutes of either medical air or carbogen rebreathing in an air-tight chamber while awake. After 30 minutes, photon flux was established in respective gas sources as a carrier for isoflurane anesthesia.

ETC complex 1 (C1), sequence (O75251 39-213): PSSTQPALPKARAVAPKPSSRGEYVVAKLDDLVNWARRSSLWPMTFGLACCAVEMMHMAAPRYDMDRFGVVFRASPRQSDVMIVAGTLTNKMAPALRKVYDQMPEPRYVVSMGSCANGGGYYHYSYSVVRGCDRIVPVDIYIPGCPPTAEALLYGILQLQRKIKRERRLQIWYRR
ETC complex 1 (C1), sequence (O75306 34-463): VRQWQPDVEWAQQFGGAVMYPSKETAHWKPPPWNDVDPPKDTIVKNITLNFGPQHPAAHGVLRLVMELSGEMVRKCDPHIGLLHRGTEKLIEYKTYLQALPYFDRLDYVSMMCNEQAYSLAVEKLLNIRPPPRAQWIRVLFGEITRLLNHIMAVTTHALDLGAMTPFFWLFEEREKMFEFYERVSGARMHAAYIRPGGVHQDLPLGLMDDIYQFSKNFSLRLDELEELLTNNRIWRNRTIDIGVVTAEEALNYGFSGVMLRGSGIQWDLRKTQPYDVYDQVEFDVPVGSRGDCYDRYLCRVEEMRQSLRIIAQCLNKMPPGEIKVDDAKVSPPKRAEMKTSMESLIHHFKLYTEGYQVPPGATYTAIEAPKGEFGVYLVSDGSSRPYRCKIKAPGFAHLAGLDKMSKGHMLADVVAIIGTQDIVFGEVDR
ETC complex 1 (C1), sequence (P03886 whole entry): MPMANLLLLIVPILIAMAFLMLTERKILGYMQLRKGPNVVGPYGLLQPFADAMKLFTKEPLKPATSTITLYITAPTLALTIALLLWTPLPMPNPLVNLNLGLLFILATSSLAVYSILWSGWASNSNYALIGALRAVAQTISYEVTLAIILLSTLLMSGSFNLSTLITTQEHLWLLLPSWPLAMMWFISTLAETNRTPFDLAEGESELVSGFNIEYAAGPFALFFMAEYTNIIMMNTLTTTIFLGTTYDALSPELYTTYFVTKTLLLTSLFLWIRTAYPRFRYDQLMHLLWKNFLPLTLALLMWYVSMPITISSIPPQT

## COc1cc2ccnc(Cc3cccc4ccccc34)c2cc1OC [SMV32]
ETC complex 1 (C1)
  mitochondrial activity: retain mitochondrial activity
ETC complex 1 (C1); vs PDE10A
  C1 inhibitor selectivity: relatively pure
PDE10A
  PDE inhibition IC25: 13.4 µM
MC38 colorectal tumor; 2 mg/kg iv 16 hours prior to suboptimal anti PD-1 (100 μg ip every 3 days)
  effect on PD-1 blockade: enhance the effectiveness of suboptimal PD-1 blockade
MC38 colorectal tumor; repeated dosing, no antibody
  tumor growth, compound alone: no effect on tumor growth
CMT167 flank lung tumors; given 16 hours prior to sub-optimal anti-PD-1, days 10 and 13
  tumor growth delay: significant tumor growth delay
CMT167 flank lung tumors; same dose as PPV
  comparison with PPV for sensitizing tumors to PD-1 blockade: superior to PPV
LLC tumor; resistant LLC tumors
  comparison with PPV for sensitizing tumors to PD-1 blockade: superior to PPV
LLC tumor; treated on days 5, 8
  therapeutic effect, compound first and PD-1 antibody second: significant growth inhibition
[1]
  exhausted CD8 T cell populations: shift from terminal (known to be non-functional) to progenitor cells
cells
  washout from cells: does not wash out of cells
Murine tumors
  radiation response: increase radiation response of murine tumors
  tumor hypoxia: reduce tumor hypoxia
[2]
  photon flux compared to PPV treated mice: trended to longer duration of action and lower luciferase activity at 6 hours

## COC(=O)CNC(=O)C(=O)OC [DMOG, dimethyloxalyglycine]
[3]
  increase of pODD-Luc signal: 2.2 ×
MP2 CMV cells
  luciferase signal response: unresponsive
MP2 pODD flank tumors
  photon flux: significant increase of photon flux
